From patent US8410135B2, “4,5 dihydro-(1H)-pyrazole derivatives as cannabinoid CB1 receptor modulators” (Solvay Pharmaceuticals B.V., priority 2007, dated 2013)
pEC50, pKi: −log10 of the molar value. Like-named read-outs stand apart in the source and are kept apart here.

Assays:
[1] = molecular target: T1, human cannabinoid CB1 receptors (Homo sapiens, UniProt P21554); test: In vitro affinity for cannabinoid-CB1 receptors ([3H]CP-55,940 radioligand binding, CHO cell membranes); details: for Ki: membranes of CHO cells stably transfected with human CB1, radioligand [3H]CP-55,940, mean of at least three independent experiments, read-out: receptor binding Human CB1 [^3H]-CP-55,940 pKi (converted)
T1 construct: expressed in transfected cells
Description: (§1) In vitro affinity for cannabinoid-CB1 receptors was determined using membrane preparations of CHO cells in which human cannabinoid CB1 receptors were stably transfected in conjunction with [^3H]CP-55,940 as radioligand. After incubation of a freshly prepared cell membrane preparation with the [^3H]-ligand, with or without addition of compounds of the invention, separation of bound and free ligand was performed by filtration over glassfiber filters. Radioactivity on the filter was measured by liquid scintillation counting.

[2] = molecular target: T2, human cannabinoid CB2 receptors (Homo sapiens, UniProt P34972); test: In vitro affinity for cannabinoid-CB2 receptors ([3H]CP-55,940 radioligand binding, CHO cell membranes); details: for Ki: membranes of CHO cells stably transfected with human CB2, radioligand [3H]CP-55,940, mean of at least three independent experiments, read-out: receptor binding Human CB2 [^3H]-CP-55,940 pKi (converted)
T2 construct: expressed in transfected cells
Description: as §1, with “cannabinoid-CB2 receptors:” for “cannabinoid-CB1 receptors”, “CB2” for “CB1”

[3] = molecular target: T3, human CB1 receptors (Homo sapiens, UniProt P21554); test: In vitro cannabinoid-CB1 receptor (ant)agonism, [3H]-arachidonic acid release in CHO cells; assay type: cell-based
T3 construct: expressed in transfected cells; host or cells: CHO cells
Description: In vitro cannabinoid-CB1 receptor (ant)agonism was assessed with human CB1 receptors cloned in CHO cells. CHO cells were grown in a DMEM culture medium, supplemented with 10% heat-inactivated fetal calf serum. Medium was aspirated and replaced by DMEM, without fetal calf serum, but containing [^3H]-arachidonic acid and incubated overnight in a cell culture stove (5% CO2/95% air; 37° C.; water-saturated atmosphere). During this period [^3H]-arachidonic acid was incorporated in membrane phospholipids. On the test day, medium was aspirated and cells were washed three times using 0.5 ml DMEM, containing 0.2% BSA. CB1 agonist stimulation lead to activation of PLA2 followed by release of [^3H]-arachidonic acid into the medium. This CB1 agonist-induced release was concentration-dependently antagonized by CB1 receptor antagonists, such as rimonabant.

[4] = human CB1 receptors cloned in CHO cells, [3H]-arachidonic acid release

T1 sequence (P21554 whole entry): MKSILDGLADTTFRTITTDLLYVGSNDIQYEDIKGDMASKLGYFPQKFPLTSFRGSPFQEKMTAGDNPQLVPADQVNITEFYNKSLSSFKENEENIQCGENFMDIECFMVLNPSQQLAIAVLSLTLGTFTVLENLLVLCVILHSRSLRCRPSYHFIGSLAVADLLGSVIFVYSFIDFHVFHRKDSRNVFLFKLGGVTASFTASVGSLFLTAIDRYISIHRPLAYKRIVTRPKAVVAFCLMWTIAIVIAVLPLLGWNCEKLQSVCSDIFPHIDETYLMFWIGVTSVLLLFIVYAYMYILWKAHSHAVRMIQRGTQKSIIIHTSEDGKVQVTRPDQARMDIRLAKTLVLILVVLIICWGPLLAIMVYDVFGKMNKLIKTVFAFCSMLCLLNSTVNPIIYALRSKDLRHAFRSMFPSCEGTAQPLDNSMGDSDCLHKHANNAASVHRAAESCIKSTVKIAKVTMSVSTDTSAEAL
T3 sequence (P21554 whole entry): as above
T2 sequence (P34972 whole entry): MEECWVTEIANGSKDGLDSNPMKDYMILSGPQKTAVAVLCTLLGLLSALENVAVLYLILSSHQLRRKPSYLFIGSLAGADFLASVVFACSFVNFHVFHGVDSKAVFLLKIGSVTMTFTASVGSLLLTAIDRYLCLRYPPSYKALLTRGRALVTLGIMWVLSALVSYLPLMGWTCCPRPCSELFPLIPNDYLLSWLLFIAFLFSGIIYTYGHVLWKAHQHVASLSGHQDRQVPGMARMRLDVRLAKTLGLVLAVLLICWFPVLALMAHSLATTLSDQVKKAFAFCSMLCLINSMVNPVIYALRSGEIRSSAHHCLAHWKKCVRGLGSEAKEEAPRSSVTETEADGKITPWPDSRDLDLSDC

Structure (SMILES) | Ki [1] | Ki [2] | functional activity h-CB1 agonistic activity [^3H]-Arachidonic acid pEC50 [3, 4] | EC50 ([3]; human CB1 receptors cloned in CHO cells, [3H]-arachidonic acid release, read-out: functional activity h-CB1 agonistic activity [^3H]-Arachidonic acid pEC50 (converted)) | pKi [1] | pKi [2] | pEC50 [3]
CCCCC1=NN(C(=O)NC(C)(C)c2ccccc2)C(C)(C)C1c1ccccc1 (stereo not drawn) [Compound 1, N-(1-methyl-1-phenyl-ethyl)-3-(n-butyl)-5,5-dimethyl-4-phenyl-4,5-dihydro-(1H)-pyrazole-1-carboxamide] | 7.94 nM | 3.98 nM | 8.1 |  |  |  | 
CCCCC1=NN(C(=O)CC(C)CC(C)(C)C)C(C)(C)C1c1ccccc1 (mixture of isomers) [Compound 39, [3-(n-butyl)-5,5-dimethyl-4-phenyl-4,5-dihydro-(1H)-pyrazol-1-yl]-3,5,5-trimethylhexan-1-one] | 100 nM | 12.6 nM |  | 63.1 nM |  |  | 
CCCCC1=NN(C(=O)N[C@@H]2C[C@H]3CC[C@H]2C3)C(C)(C)C1c1ccccc1 (relative stereo) [Compound 19, N-(rel-exo-bicyclo[2.2.1]hept-2-yl)-3-(n-butyl)-5,5-dimethyl-4-phenyl-4,5-dihydro-(1H)-pyrazole-1-carboxamide] |  |  |  |  | 7.60 | 8.10 | 7.00
CCCCC1=NN(C(=O)N[C@H]2C[C@H]3CC[C@]2(C)C3(C)C)C(C)(C)C1c1ccccc1 (stereo partly drawn) [Compound 2, N-[Endo-(1R,2S,4R)-1,7,7-trimethylbicyclo[2.2.1]hept-2-yl]-3-(n-butyl)-5,5-dimethyl-4-phenyl-4,5-dihydro-(1H)-pyrazole-1-carboxamide] |  |  | 7.4 |  | 7.90 | 8.40 | 
